Assay results from the supplement of paper PMC4862054.

Columns and labels:
Conditions in all cases: 72 h
BT-474 = system: BT-474
Method in brief: (§1)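 For viability and cell death testing, 384-well plates carried compound at 5 concentrations in 10-fold steps over a compound-specific 10,000-fold range, and breast cancer cell lines were seeded in 20 µl suspension. After 72 h incubation, cell death was read by CellTox Green fluorescence (485/520 nm) before viability was read by CellTiter-Glo luminescence. EC50 was fitted from the dose-response curves and censored at the top concentration. Normalisation on each plate was to 0.1 % DMSO and a positive kill control.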

BT-549 [1] = system: BT-549
Method in brief: as §1

CAL-120 = system: CAL-120
Method in brief: as §1

CAL-148 [2] = system: CAL-148
Method in brief: as §1

CAL-51 [3] = system: CAL-51
Method in brief: as §1

CAL-85-1 [4] = system: CAL-85-1
Method in brief: as §1

DU-4475 [5] = system: DU-4475
Method in brief: as §1

HCC1143 = system: HCC1143
Method in brief: as §1

HCC1599 = system: HCC1599
Method in brief: as §1

HCC1937 = system: HCC1937
Method in brief: as §1

HDQ-P1 [6] = system: HDQ-P1
Method in brief: as §1

Hs578T [7] = system: Hs578T
Method in brief: as §1

MCF-10A = system: MCF-10A
Method in brief: as §1

MDA-MB-231 [8] = system: MDA-MB-231
Method in brief: as §1

MDA-MB-436 [9] = system: MDA-MB-436
Method in brief: as §1

MDA-MB-468 = system: MDA-MB-468
Method in brief: as §1

MFM-223 = system: MFM-223
Method in brief: as §1

SK-BR-3 [10] = system: SK-BR-3
Method in brief: as §1

MDA-MB-453 [11] = system: MDA-MB-453
Method in brief: as §1

CAL-148 [12] = system: CAL-148; remark: listed apart in the source
Method in brief: (§2)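 Rows with a drug sensitivity score of zero were dropped, and EC50 was taken from the fitted percent-inhibition dose-response curve, censored at the highest concentration. Data were normalised on each plate to vehicle and a positive kill control and checked by Z'-factor. The assay seeded breast cancer cell lines in 20 µl onto 384-well plates pre-loaded with compound in 5 µl medium for 72 h, then added 2.5 µl CellTiter-Blue for 2 h at 37 °C and read fluorescence at 560/590 nm.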

CAL-51 [13] = system: CAL-51; remark: listed apart in the source
Method in brief: as §2

CAL-85-1 [14] = system: CAL-85-1; remark: listed apart in the source
Method in brief: as §2

DU-4475 [15] = system: DU-4475; remark: listed apart in the source
Method in brief: as §2

HDQ-P1 [16] = system: HDQ-P1; remark: listed apart in the source
Method in brief: as §2

MDA-MB-453 [17] = system: MDA-MB-453; remark: listed apart in the source
Method in brief: as §2

BT-549 [18] = system: BT-549; remark: listed apart in the source
Method in brief: as §2

Hs578T [19] = system: Hs578T; remark: listed apart in the source
Method in brief: as §2

MDA-MB-231 [20] = system: MDA-MB-231; remark: listed apart in the source
Method in brief: as §2

MDA-MB-436 [21] = system: MDA-MB-436; remark: listed apart in the source
Method in brief: as §2

SK-BR-3 [22] = system: SK-BR-3; remark: listed apart in the source
Method in brief: as §2

SMILES | EC50, CellTiter-Glo (BT-474) | EC50, CellTiter-Glo (BT-549 [1]) | EC50, CellTiter-Glo (CAL-120) | EC50, CellTiter-Glo (CAL-148 [2]) | EC50, CellTiter-Glo (CAL-51 [3]) | EC50, CellTiter-Glo (CAL-85-1 [4]) | EC50, CellTiter-Glo (DU-4475 [5]) | EC50, CellTiter-Glo (HCC1143) | EC50, CellTiter-Glo (HCC1599) | EC50, CellTiter-Glo (HCC1937) | EC50, CellTiter-Glo (HDQ-P1 [6]) | EC50, CellTiter-Glo (Hs578T [7]) | EC50, CellTiter-Glo (MCF-10A) | EC50, CellTiter-Glo (MDA-MB-231 [8]) | EC50, CellTiter-Glo (MDA-MB-436 [9]) | EC50, CellTiter-Glo (MDA-MB-468) | EC50, CellTiter-Glo (MFM-223) | EC50, CellTiter-Glo (SK-BR-3 [10]) | EC50, CellTiter-Glo (MDA-MB-453 [11]) | EC50, CellTiter-Blue viability (CAL-148 [12]) | EC50, CellTiter-Blue viability (CAL-51 [13]) | EC50, CellTiter-Blue viability (CAL-85-1 [14]) | EC50, CellTiter-Blue viability (DU-4475 [15]) | EC50, CellTiter-Blue viability (HDQ-P1 [16]) | EC50, CellTiter-Blue viability (MDA-MB-453 [17]) | EC50, CellTiter-Blue viability (BT-549 [18]) | EC50, CellTiter-Blue viability (Hs578T [19]) | EC50, CellTiter-Blue viability (MDA-MB-231 [20]) | EC50, CellTiter-Blue viability (MDA-MB-436 [21]) | EC50, CellTiter-Blue viability (SK-BR-3 [22])
CN(c1ccccc1CNc1nc(Nc2ccc3c(c2)CC(=O)N3)ncc1C(F)(F)F)S(C)(=O)=O | 2430 nM | 3130 nM | 8760 nM | 1880 nM | 1110 nM | 2450 nM | 2130 nM | 3640 nM | 4380 nM | 6520 nM | 1820 nM | 4360 nM | 1490 nM | 1990 nM | 5620 nM | 1750 nM | 9400 nM | 3190 nM |  |  |  |  |  |  |  |  |  |  |  | 
COc1ncc(-c2ccc3nccc(-c4ccnnc4)c3c2)cc1NS(=O)(=O)c1ccc(F)cc1F | 19.8 nM | 21.8 nM | 27.6 nM | 76.8 nM | 34.7 nM | 15.8 nM | 228 nM | 32.5 nM | 13.9 nM | 130 nM | 14.2 nM | 37.6 nM | 12.9 nM | 56.6 nM | 23.8 nM | 43 nM | 16.2 nM | 6.82 nM | 14.8 nM | 27.6 nM | 12.6 nM | 27.2 nM | 113 nM | 6.71 nM | 5.38 nM | 45.1 nM | 36.6 nM | 33.5 nM | 26.4 nM | 3.24 nM
C[C@@]1(C(=O)Nc2ccc(F)nc2)CCCN1c1nc(Nc2cc(C3CC3)n[nH]2)c2cccn2n1 | 2050 nM | 1420 nM | 1250 nM |  | 1060 nM | 467 nM | 4110 nM | 4150 nM | 2260 nM |  | 402 nM | 7980 nM | 21.6 nM | 1770 nM | 2720 nM | 207 nM | 1570 nM | 127 nM |  | 1170 nM | 1500 nM | 858 nM | 1510 nM | 293 nM | 314 nM | 1310 nM | 4740 nM | 435 nM | 6370 nM | 588 nM
COc1c(C)cnc(Cn2cnc3c(Cl)nc(N)nc32)c1C [BIIB021] | 421 nM | 92.6 nM | 247 nM | 199 nM | 227 nM | 308 nM | 329 nM | 416 nM | 190 nM | 157 nM | 242 nM | 756 nM | 354 nM | 483 nM | 141 nM | 370 nM | 192 nM | 13.7 nM | 153 nM | 133 nM | 341 nM | 490 nM | 143 nM | 241 nM | 64 nM | 44.8 nM | 47 nM | 177 nM | 429 nM | 28 nM
CC(C)C[C@H](NC(=O)[C@H](Cc1ccccc1)NC(=O)c1cnccn1)B(O)O [Bortezomib] | 8.94 nM | 3.96 nM | 16.1 nM | 60.1 nM | 30 nM | 4.47 nM | 27.1 nM | 19 nM | 97 nM | 71.2 nM | 12.4 nM | 13.1 nM | 134 nM | 13.9 nM | 6.1 nM | 2.93 nM | 5.1 nM | 0.28 nM | 22.9 nM | 24.7 nM | 38.9 nM | 7.76 nM | 18.6 nM | 5.29 nM | 6.36 nM | 7.83 nM | 22.2 nM | 3.89 nM | 34.9 nM | 2.77 nM
C#Cc1cccc(Nc2ncnc3cc(OC)c(OCCCCCCC(=O)NO)cc23)c1 [CUDC-101] | 1970 nM | 1170 nM | 3230 nM | 1280 nM | 847 nM | 212 nM | 1500 nM | 783 nM | 911 nM | 1470 nM | 3360 nM | 1920 nM | 242 nM | 689 nM | 1640 nM | 202 nM | 190 nM | 507 nM | 123 nM | 817 nM | 3790 nM | 426 nM | 1130 nM | 213 nM | 168 nM | 1620 nM | 394 nM | 835 nM | 969 nM | 101 nM
COc1cccc2c1C(=O)c1c(O)c3c(c(O)c1C2=O)C[C@@](O)(C(C)=O)C[C@@H]3O[C@H]1C[C@H](N)[C@H](O)[C@H](C)O1 [Daunorubicin] | 169 nM | 129 nM | 227 nM | 134 nM | 84.2 nM | 380 nM | 211 nM | 535 nM | 570 nM | 692 nM | 519 nM | 229 nM | 633 nM | 221 nM | 175 nM | 109 nM | 784 nM | 254 nM | 470 nM | 66.1 nM | 59 nM | 290 nM | 56.4 nM | 338 nM | 465 nM | 141 nM | 150 nM | 56.1 nM | 78.5 nM | 66.4 nM
O=c1[nH]c(=O)n([C@H]2C[C@H](O)[C@@H](CO)O2)cc1F [Floxuridine] | 555 nM |  | 420 nM |  | 80.3 nM | 79.5 nM | 1580 nM |  | 27 nM | 211 nM |  | 34 nM |  | 687 nM | 57.7 nM | 240 nM |  | 96.6 nM |  | 19.8 nM | 46.9 nM | 66.3 nM |  |  | 5880 nM | 804 nM | 501 nM | 494 nM | 182 nM | 60.3 nM
O=c1[nH]cc(F)c(=O)[nH]1 [Fluorouracil] |  |  |  |  |  | 272 nM |  |  |  |  |  |  |  |  | 425 nM |  |  | 556 nM |  | 944 nM | 5390 nM | 680 nM | 2570 nM |  | 3900 nM | 1240 nM |  | 2880 nM | 7520 nM | 532 nM
